How the values were obtained:
[1] = tested on: H1975 cells; assay: Cell cycle analysis (PI staining, flow cytometry) in H1975 cells; type: cell-based; conditions: 5 μM and 10 μM, 48 h
Method: H1975 cells were plated with 1.5×10^5 cells/well at a 6-well plate and cultured overnight for attachment. Cells were treated with the compound F321-0775 at 0, 2.5, 5, 10 μM for 48 h. After treatment, all cells were harvested by trypsinization, and collected by centrifugation. After removing all suspension, cells were washed by PBS. Cells pellets were re-suspended in 70% ethanol at 4° C. overnight. Cells were centrifuged at 1000 rpm for 5 min to remove all the ethanol. Each cell pellet was re-suspended in 500 μl PI staining solution at 37° C. for 30 min in dark. Then, they were washed in PBS twice. Cells were re-suspended in 300 μl 1× binding buffer and transferred to the flow cytometer (BD FACS Aria III).

[2] = tested on: H1975 cells; assay: Apoptosis assay (Annexin-V FITC/PI flow cytometry) in H1975 cells; type: cell-based; conditions: 48 h treatment, vs control group
Method: H1975 cells (1×10^5 cells/well) were seeded in a 6-well plate for 24 h, and treated with the indicated concentrations of the compound F321-0719 for an additional 48 h at 37° C. After 48 h, the cells were washed by ice-cold 1×PBS (Phosphate-buffered saline) once and harvested by trypsination. Then cells were centrifuged, collected and re-suspended in ice-cold 1×PBS. After removing the supernatants, cell pellets were re-suspended in 100 μL 1× Annexin-binding buffer. The cells were then double-stained with Annexin-V FITC and PI (100 μg/mL) of 2 μL respectively for 15 min at room temperature in dark. After that, 300 μL 1× Annexin-binding buffer was added. Apoptotic cells were quantitatively counted by a BD Aria III Flow Cytometer (BD Biosciences, San Jose, Calif., USA).

[3] = MTT cytotoxicity assay on normal lung fibroblast CCD-19 Lu cells; type: cell-based; conditions: human, CCD-19 Lu normal lung fibroblast cells, CCD-19 Lu normal lung cells, MTT
Method: (§1) H1975 and CCD-19 Lu was purchased from ATCC (American type culture collection). H1975 was cultivated with RPMI 1640 medium supplement with 10% fetal bovine serum (Gibco, Big Cabin, Okla., ME, USA), 100 U/mL, penicillin and 100 μg/mL and streptomycin (Gibco, Big Cabin, Okla., ME, USA). CCD-19 Lu was cultivated with MEM medium supplemented with 10% FBS, 100 U/ml penicillin and 100 μg/ml streptomycin. All cells were cultivated at 37° C. in a humidified atmosphere of 5% CO2.
(§2) H1975 cells were seeded in a 96-well microplate with 3000 cells/well confluence, and put into the incubator overnight for cells adhesion. Different concentrations of the compound F321-0719 were added with Dimethyl sulfoxide (DMSO) as vehicle control. The microplates were incubated for further 72 h. Each dosage was repeated in triplicate. 10 μL of MTT (5 mg/mL) solution was added to each well. The plate was placed back into the incubator for 4 hours. After that, 100 μL of resolved solution (10% SDS and 0.1 mM HCL) was added to each well. Before dissolving the formazan crystals, the microplate was put back into the incubator for another 4 hours. The absorbance of the plate was measured at 570 nm with reference 650 nm by a microplate reader (Tecan, Morrisville, N.C., USA). Cell viability was calculated by percentages of the absorbance of the treatment group divided by the absorbance of untreated group. […]

[4] = tested on: CCD-19 Lu cells; assay: as above; type: cell-based; conditions: 72 h; even at concentration 20 times the IC50 on H1975 cells
Method: as §1, §2

[5] = tested on: H1975 cells; assay: MTT cytotoxicity assay on H1975 NSCLC cells; type: cell-based; conditions: Homo sapiens, NCI-H1975, H1975, EGFR L858R/T790M, 72 h treatment
Method: as §1, §2

[6] = tested on: AMPK; assay: AMPK enzyme activity assay (CycLex AMPK Kinase Assay Kit); type: biochemical; conditions: at 2.5 μM of the compound
Excerpt: The CycLex AMPK Kinase Assay Kit (CycLex Co., Ltd., Nagano, Japan) was used to detect the activation of AMPK by the compound F321-0719. Compound C was used as AMPK inhibitor, and AMPK active enzyme was used as a positive control for phosphorylation.

[7] = tested on: phosphorylation of AMPK and ACC; assay: Western blot analysis of AMPK and ACC phosphorylation in H1975 cells; type: cell-based; conditions: β-actin loading control
Method: After incubating H1975 cells with the compound F321-0719 for 24 h, H1975 cells were harvested and washed with cold 1×PBS. Then, cells were lysed with ice-cold RIPA lysis buffer with protease and phosphatase inhibitors added to extract the cell protein extraction. The supernatants were collected by centrifugation at 12,000 g, for 5 minutes. The quantitation of total protein extraction was measured by Bio-Rad DCTM protein assay kit (Bio-Rad, Philadelphia, Pa., USA). Then 30 μg of protein were loaded and electrophoretically separated on 10% SDS-PAGE gel and then transferred to Nitrocellulose (NC) membrane. Membranes were blocked with 5% non-fat milk and […] containing 0.1% Tween-20 (TBST) for 1 hour at room temperature. After 1 hour, membranes were incubated with primary antibodies (1:1000 dilution) against β-actin, total/phosphor-ACC, total-AMPK, and against phosphor-AMPK, at 4° C. with gently shaking overnight. Membranes were washed with TBST for 3 times (5 minutes/time), and incubated with secondary fluorescent antibody (1:10000 dilutions) for 1 hour at room temperature. Rewashing with TBST for 3 times (15 minutes/time), the stripes were visualized by LI-COR Odessy scanner (Belfast, Me., USA).

O=C(Nc1cccc(-c2noc(C3CCCC3)n2)c1)c1cc2ccccc2[nH]1 [F321-0719]
G2 phase of cell cycle distribution [1]: increased
apoptosis level [2]: induced significant level of apoptosis in a concentration-dependent manner
IC50 at 72 h [3]: > 100 µM
cytotoxicity on CCD-19 Lu cells [4]: no cytotoxicity
IC50 [5]: 3.46 ± 1.71 µM
AMPK enzyme activity (fold of AMPK kinase group) [6]: enhanced
phosphorylation of AMPK and ACC (western blot) [7]: activated phosphorylation of both AMPK and ACC in a dose-dependent manner

— patent US9855250B1, “Method to treat lung cancer” (Macau University of Science and Technology, priority 2016, dated 2018)
